Measured values reported in article PMC4820820, “CETSA screening identifies known and novel thymidylate synthase inhibitors and slow intracellular activation of 5-fluorouracil” (Nature Communications, 2016).
Several values for one entry are separate records, joined by “and”; a condition that tells them apart may be missing. Equal values may be shown once. Read-outs that look alike come from different tables or passages of the source. Values belong to the compound of their own block, whether it stands above or below them.

What was measured:
[1] = biological target: T1, human thymidylate synthase (TS) (Homo sapiens, UniProt P04818); test: ITDRF CETSA at 50 °C, AlphaScreen detection, live K562 cells; assay type: cell-based; conditions: for EC50: 2 h preincubation
T1 construct: screening in live, non-engineered cells expressing thymidylate synthase; endogenous in cells; host or cells: K562 (human myelogenous leukemia) cells
T1 sequence (P04818 2-313 limits assumed): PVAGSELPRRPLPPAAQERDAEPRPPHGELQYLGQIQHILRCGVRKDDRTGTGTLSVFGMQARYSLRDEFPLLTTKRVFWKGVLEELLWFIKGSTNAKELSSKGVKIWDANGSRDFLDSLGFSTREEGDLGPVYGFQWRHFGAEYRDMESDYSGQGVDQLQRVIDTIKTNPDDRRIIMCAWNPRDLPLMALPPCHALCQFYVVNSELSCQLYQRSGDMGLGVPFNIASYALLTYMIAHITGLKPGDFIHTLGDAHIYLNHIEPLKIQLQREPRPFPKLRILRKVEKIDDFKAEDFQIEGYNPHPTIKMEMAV
Procedure: For the […] experiments 11-point dose-response curves with three-fold difference in concentration between wells were generated using the Bravo liquid handling system (all serial dilutions were done in 100% DMSO). […] The concentration of DMSO was 0.5% in all samples. […] The assay ready plates were prepared as outlined above for the screen.
(§1) The screen procedure started with the addition of 5 μl of a suspension of K562 cells at a density of 10 million cells per ml to all wells of a 384 well hardshell PCR plate (HSR480, BIORAD) using an electronic multichannel pipette (Biohit). […] For the time-course experiments the incubation times were altered to include also 10 min, 30 min and 6 h. […] After the incubation step the plates were transiently heated at 50 °C for 3 min followed by a controlled cooling to 20 °C for 1 min using a real-time PCR machine (LightCycler480 system, Roche). Plate handling was then as described above for the thermal aggregation experiments. The data were analyzed using microsoft excel and GraphPad Prism 6.
(§2) A calculation of the average and standard error of means for each set of controls also allowed an illustration of how these responses varied over the 32 screening plates. The Z′ factor[38] is commonly used as a measure of how well the assay separates between the controls and this was calculated as described based on the calculated averages and standard deviations of the controls on a per plate basis. For the Tagg shift and the […] experiments the data were analyzed in GraphPad Prism using the Boltzmann sigmoid equation and the saturation binding curve (rectangular hyperbola; binding isotherm) function, respectively. As already discussed[14] these methods make use of equilibrium models for data analysis although the methodology depends on the irreversible aggregation of denatured material. For this reason we refer to the observed responses as apparent and isothermal dose-response fingerprints and are careful with any quantitative interpretations, being well aware of their dependency on experimental conditions. Experiments are on-going to address the quantitative interpretation of CETSA data.

[2] = biological target: T1, human thymidylate synthase (TS); test: CETSA primary screen / single-concentration retest, AlphaScreen, live K562 cells; assay type: cell-based; conditions: for % stabilization in screen at 50 µM: K562, 2 h, read-out: % stabilization in screen
Procedure: Compounds were placed in columns 1–22. […] At the day of the experiment the plates were allowed to thaw for 30 min followed by a brief centrifugation step (1,000 × g for 1 min) prior to removal of the seal. The compounds were then diluted with 20 μl supplemented cell culture medium using a Multidrop Combi reagent dispenser (Thermo Scientific). Finally 5 μl of the diluted compounds were transferred to a 384 well hardshell PCR plate (HSR480, BIORAD) using a Bravo liquid handling platform equipped with a 384-well head (Agilent). […] The final concentration of DMSO in the assay was 0.5% in all samples.
as §1, §2

[3] = biological target: TS (Homo sapiens, UniProt P04818); test: Thermal shift in vitro assay on recombinant protein; assay type: binding; design: His6 tag with TEV site (vector-encoded by pNIC28-Bsa4); made in house; host or cells: Rosetta BL21-DE3 Escherichia coli; conditions: nucleoside without enzyme treatment
Chain of TS (P04818 whole entry): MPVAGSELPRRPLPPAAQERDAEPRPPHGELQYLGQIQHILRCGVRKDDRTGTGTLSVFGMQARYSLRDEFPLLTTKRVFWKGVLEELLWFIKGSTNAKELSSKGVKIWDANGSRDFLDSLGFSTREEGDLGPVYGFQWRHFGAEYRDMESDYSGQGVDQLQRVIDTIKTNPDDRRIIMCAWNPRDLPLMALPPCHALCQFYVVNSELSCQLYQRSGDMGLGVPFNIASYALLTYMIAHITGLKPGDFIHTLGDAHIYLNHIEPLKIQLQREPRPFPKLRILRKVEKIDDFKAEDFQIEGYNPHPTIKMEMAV
Procedure: The assay was performed on the iCycler iQ Real Time PCR Detection System (Bio-Rad), using the 96-well thin-wall PCR plate (Bio-Rad). The experiment was conducted in a buffer containing 20 mM HEPES at pH 7.5 and 150 mM NaCl. A total volume of 25 μl solution containing 0.2 mg ml^−1 protein, compounds and × 5 Sypro Orange dye (Invitrogen) diluted from 5,000 × stock was dispensed into the 96-well plate. The same amount of DMSO was added in the control wells. The plates were sealed with Microseal B adhesive sealer (Bio-Rad) and heated in iCycler from 25 to 80 °C (56 heating cycles in 28 min). Fluorescent filter used for Sypro Orange measurements was λexcitation=492 nm and λemission=610 nm. The calculation of the midpoint of the curves (Tm) was performed using the software package XLfit from IDBS within microsoft excel.
Decitabine at a concentration of 1 mM was incubated with 1 mg ml^−1 of recombinant DCK and 2.5 mM ATP in a buffer of 50 mM Tris at pH 7.5, 150 mM NaCl and 0.5 mM MgCl2 at room temperature for 60 min to generate the corresponding monophosphates. To probe for nucleotide deamination the samples were further treated with 1 mg ml^−1 of recombinant DCTD in the presence of 1 mM ATP and 10 μM ZnCl2 for 20 min at room temperature. After incubation, the samples were heated at 95 °C for 10 min and centrifuged for 10 min at the highest speed at 4 °C using a benchtop centrifuge. The supernatant was tested without dilution in thermal shift in vitro assays and the TS enzyme inhibition assay. The supernatants from samples without nucleoside were used as the treatment controls.

[4] = biological target: T1, human thymidylate synthase (TS); test: CETSA Tagg curves, AlphaScreen detection, live K562 cells; assay type: cell-based; conditions: 2 h preincubation, 3 min heating, DMSO control 46.7±0.2 °C
Procedure: The data were analyzed using microsoft excel and GraphPad Prism 6.
as §2

[5] = Intracellular compound and metabolite concentrations by LC-MS/MS in K562 cells; assay type: in vitro ADME, human; conditions: K562 cells incubated with 100 µM 5-FU, first 6 h
Procedure: Intracellular concentrations of compounds were measured as previously described. Briefly, K562 cells were incubated with the compounds for a predefined time at 37 °C in a 5% CO2 atmosphere. After incubation, the cells were centrifuged (300 × g for 5 min) and a medium sample (supernatant) was collected and diluted 1:10 in a 50 nM warfarin solution (internal standard). The cells were washed with phosphate buffered salt solution and lysed with methanol. Methanol was evaporated and the cell samples were reconstituted in 50 nM warfarin. Samples were analyzed with LC–MS/MS with electrospray ionization in negative mode with transitions monitored as listed in Table 2.

[6] = 50 °C, unit taken from curve axis log [cmp] (M), read-out: ITDRF CETSA (hit confirmation)
[7] = 50 μM compound, 2 h preincubation, 50 °C, 0% = DMSO, 100% = 100 nM raltitrexed

- EC50 [1, 6]: 1.42e-07 M
- % stabilization in screen [2, 7]: 23%
SMILES: COCc1cn(C2CC(O)C(CO)O2)c(=O)[nH]c1=O (centres unmarked) [CBK201230]

- EC50 [1, 6]: 2.28e-05 M
- % stabilization in screen [2, 7]: 90%
SMILES: CC#Cc1cn([C@H]2C[C@@H](O)[C@@H](CO)O2)c(=O)[nH]c1=O [CBK201182]

- EC50 [1, 6]: 3.18e-10 M
- % stabilization in screen at 50 µM [2]: 66%
- stabilization of recombinant TS in thermal shift assay [3]: did not stabilize
SMILES: O=c1[nH]c(=O)n([C@H]2C[C@H](O)[C@@H](CO)O2)cc1C(F)(F)F [TFT, 5-trifluoro-2′-deoxythymidine]

- apparent Tagg of TS ([4]; 1 μM raltitrexed): above 65 °C
SMILES: Cc1nc2ccc(CN(C)c3ccc(C(=O)N[C@@H](CCC(=O)O)C(=O)O)s3)cc2c(=O)[nH]1 [raltitrexed]

- EC50 ([1]; 50 °C for 3 min, read-out: […] apparent EC50): 1.9e-05 ± 4e-06 M
- % stabilization in screen at 50 µM [2]: 48%
- intracellular levels of FdUMP [5]: undetectable
SMILES: O=c1[nH]cc(F)c(=O)[nH]1 [Compound 5-FU, 5-fluorouracil]

- EC50 [1, 6]: 9.17e-06 M
- % stabilization in screen [2, 7]: 66%
SMILES: Cc1cc(C)c(Oc2nc(=O)n([C@H]3C[C@@H](O)[C@@H](CO)O3)cc2F)c(C)c1 [CBK201184]

- EC50 [1, 6]: 8.38e-06 M
- % stabilization in screen at 50 µM [2]: 76%
SMILES: CCc1nc(N)nc(N)c1-c1ccc(Cl)cc1 [CBK041886, Pyrimethamine, reference compound]

- apparent Tagg of TS ([4]; 15 μM floxuridine): above 65 °C
- concentration giving stabilization of TS (CETSA) ([1]; 10 min of pre-incubation): low nM
- EC50 [1, 6]: 6.61e-11 M
- EC50 ([1]; ITDRFCETSA EC50 (half-maximal stabilization of TS), 50 °C for 3 min, read-out: […] EC50 (half-maximal stabilization of TS)): 6.5e-11 M and 4.7e-11 M
- % stabilization in screen at 50 µM [2, 7]: 64%
- stabilization of recombinant TS in thermal shift assay [3]: did not stabilize
SMILES: O=c1[nH]c(=O)n([C@H]2C[C@H](O)[C@@H](CO)O2)cc1F [floxuridine, 5-fluorodeoxyuridine]

- EC50 [1, 6]: 3.43e-07 M
- % stabilization in screen [2, 7]: 22%
SMILES: Nc1nc(=O)n([C@H]2C[C@@H](O)[C@@H](CO)O2)cc1O [CBK201221]

- stabilization of recombinant TS in thermal shift assay [3]: did not stabilize
SMILES: O=c1ccn([C@H]2C[C@H](O)[C@@H](CO)O2)c(=O)[nH]1 [deoxyuridine]

SMILES: C#Cc1cn([C@H]2C[C@H](O)[C@@H](CO)O2)c(=O)[nH]c1=O [CBK201207, 5-ethynyl-2′-deoxyuridine, reference compound]
- EC50 [1, 6]: 1.41e-09 M
- % stabilization in screen at 50 µM [2, 7]: 102%
